Reference: patent US12595251B2, “Amidines and amidine analogs for the treatment of bacterial infections and potentiation antibiotics” (GEORGIA STATE UNIVERSITY RESEARCH FOUNDATION, INC., priority 2018, dated 2026)
“And” between values parts separate entries of the source, which are not always exact repeats. Equal values may be shown once. Read-outs that look alike come from different tables or passages of the source.

How the values were obtained:
[1] = test system: B. subtilis; test: Sensitization of B. subtilis to erythromycin (sensitization fold from IC90, OD600, 20 h); assay type: cell-based, Bacillus subtilis; conditions: for SF (B. subtilis) at 6 μM: compound at 6 μM
Experimental: (§1) E. coli bacteria were cultured in Miller's broth at 37° C. overnight prior to treatment. B. subtilis bacteria were cultured in nutrient broth at 37° C. overnight prior to treatment. […] Bacterial density was measured based on OD600.

[2] = test system: MRSA; test: Sensitization of MRSA to erythromycin (sensitization fold from IC90); assay type: cell-based, Staphylococcus aureus; conditions: for SF (MRSA) at 12 μM: compound at 12 μM; for SF (MRSA) at 6 μM: compound at 6 μM
Experimental: MRSA bacteria were cultured in nutrient broth at 37° C. overnight prior to treatment. […] Bacterial density was measured based on OD600.

[3] = test system: NDM-1 over-expressing E. coli; test: microbe, parasite or virus in culture; assay type: cell-based, Escherichia coli; conditions: for MIC: Escherichia coli; for FIC / MIC of AB with Compound C (5 μg/ml): antibiotic plus Compound C 5 μg/ml; for Sensitization fold: MIC of antibiotic only / MIC with Compound C 5 μg/ml
[4] = test system: wild-type E. coli; test: Sensitization of wild-type E. coli toward antibiotics (MIC of antibiotic with/without sensitizer); assay type: cell-based, Escherichia coli; conditions: for MIC: Escherichia coli; for MIC of AB with Compound C (5 μg/ml) / FIC: antibiotic plus Compound C 5 μg/ml; for FIC: fractional inhibitory concentration
Experimental: Bacteria were cultured with the antibiotic at various concentrations in the presence or absence of bacterial sensitizer for 24 hours at 37° C. Bacterial growth density was determined by measuring OD600 (absorbance measured at a wavelength of 600 nm). […]
The formula for calculating FIC is shown below: […]

[5] = test system: MRSA; test: MIC of compounds against MRSA (OD600, 48 h); assay type: cell-based; conditions: Staphylococcus aureus; for MIC: MIC = 90% growth inhibition, compound alone, 48 h; for inhibition at 6 µM: read-out: Growth inhibition of MRSA at 6 μM, compound alone at 6 μM, NA=no activity
Experimental: Bacteria were then cultured with varying concentration of the compounds shown below for 48 hours, and then bacterial density was measured based on OD600. The minimum inhibitory concentration (MIC, 90% growth inhibition) was calculated for each compound, as shown in Table 4 (NA=no activity; --=not measured).

[6] = test system: wild type B. subtilis; test: Sensitization of B. subtilis toward antibiotics (MIC, OD600, 24 h); assay type: cell-based, Bacillus subtilis; conditions: 5.5 μg/ml Compound M-1
Experimental: FIG. 22A is a bar graph showing that Compound M-1 sensitizes B. subtilis towards rifampicin as described in Example 13. Bacteria was cultured with rifampicin at various concentrations in the presence or absence of Compound M-1 for 24 hours at 37° C. and bacterial growth density was determined by measuring OD600. The y-axis is growth density measured in percent. The x-axis is rifampicin concentration measured in micrograms per milliliter (***: p<0.01).
Compound M-1 can sensitize Gram-positive bacteria such as B. subtilis towards traditional antibiotics. […] The sensitization fold is 32-fold for Compound M-1 and the FIC index is 0.14.

[7] = test system: wild type B. subtilis; test: as above; assay type: cell-based, Bacillus subtilis; conditions: antibiotic alone
[8] = test system: E. coli; test: Sensitization of E. coli to erythromycin (sensitization fold from IC90, OD600, 20 h); assay type: cell-based, Escherichia coli; conditions: erythromycin; compound at 12.5 μM; NA=no activity
Experimental: as §1

[9] = antibiotic alone, read-out: MIC of AB only
[10] = 24 h, antibiotic alone, wild-type E. coli, read-out: MIC of AB only
[11] = antibiotic alone, wild-type E. coli, read-out: MIC of AB only
[12] = read-out: MIC of AB with Compound C (5 μg/ml), antibiotic plus Compound C 5 μg/ml, wild-type E. coli

Structure (SMILES): COc1cc(C(=N)N)ccc1OCc1cccc(COc2ccc(C(=N)N)cc2OC)c1F [drawing 731]
- SF (B. subtilis) at 6 μM ([1]; erythromycin, NA=no activity): 4-fold at 6 μM

Structure (SMILES): Cc1cc(COc2ccc(C3=NCCCN3)cc2)cc(COc2ccc(C3=NCCCN3)cc2)c1 [drawing 842]
- SF (MRSA) at 12 μM ([2]; NA=no activity): 4 fold
- SF (MRSA) at 25 μM ([2]; compound at 25 μM, NA=no activity): 8 fold

Structure (SMILES): CCC[C@@H]1C[C@@H](C(=O)N[C@@H]([C@H]2O[C@H](SC)[C@H](O)[C@@H](O)[C@H]2O)[C@H](C)Cl)N(C)C1 [Clindamycin, clindamycin]
- MIC [3, 9]: 250 µg/mL
- FIC [3]: 0.12
- MIC of AB with Compound C (5 μg/ml) [3]: 4 µg/mL
- MIC [4, 10]: 250 µg/mL
- MIC of AB with Compound C (5 μg/ml) ([4]; wild-type E. coli): 4 µg/mL
- FIC ([4]; wild-type E. coli): 0.12

Structure (SMILES): Cc1cc(CSc2ccc(C3=NCCN3)cc2)cc(CSc2ccc(C3=NCCN3)cc2)c1 [drawing 745]
- SF (B. subtilis) at 3 μM ([1]; erythromycin, compound at 3 μM): 4 fold
- SF (B. subtilis) at 6 μM ([1]; erythromycin, NA=no activity): 16 fold

Structure (SMILES): COc1cc(C(=N)N)ccc1OCc1cc(C)cc(COc2ccc(C(=N)N)cc2OC)c1 [drawing 836]
- SF (MRSA) at 6 μM [2]: 2-4 fold
- SF (MRSA) at 12 μM ([2]; NA=no activity): 8-16 fold
- MIC [5]: 25 µM
- inhibition at 12 µM ([5]; compound alone at 12 μM, NA=no activity, read-out: Growth inhibition of MRSA at 12 μM): 10%

Structure (SMILES): Cc1cc(COc2ccc(C3=NCCN3)cc2)cc(COc2ccc(C3=NCCN3)cc2)c1 [drawing 723]
- SF (B. subtilis) ([1]; sensitization fold = IC90 of erythromycin without/with compound, compound concentration not given, NA=no activity, T=toxic): >4

Structure (SMILES): CC(C)NC(=N)c1ccc(OCc2cccc(COc3ccc(C(=N)NC(C)C)cc3)c2F)cc1 [drawing 839]
- SF (MRSA) at 4 μM ([2]; compound at 4 μM): 16-fold at 4 μM
- MIC [5]: 12.5 µM

Structure (SMILES): O=C(N[C@H](CO)[C@H](O)c1ccc([N+](=O)[O-])cc1)C(Cl)Cl [Chloramphenicol, chloramphenicol]
- MIC [3, 9]: 6.25 µg/mL
- Sensitization fold [3]: 8
- FIC [3]: 0.22
- MIC of AB with Compound C (5 μg/ml) [3]: 0.8 µg/mL
- MIC [4, 10]: 12.5 µg/mL
- MIC of AB with Compound C (5 μg/ml) ([4]; wild-type E. coli): 1.5 µg/mL
- FIC ([4]; wild-type E. coli): 0.22

Structure (SMILES): CC(C)(C)c1cc(COc2ccc(C(=N)N)cc2F)cc(COc2ccc(C(=N)N)cc2F)c1 [drawing 844]
- inhibition at 6 µM [5]: 60%

Structure (SMILES): Cc1cc(COc2ccc(C(=N)N)cc2F)cc(COc2ccc(C(=N)N)cc2F)c1 [drawing 846]
- MIC [5]: 12 µM
- inhibition at 6 µM [5]: 20%

Structure (SMILES): CC[C@H]1OC(=O)[C@H](C)[C@@H](O[C@H]2C[C@@](C)(OC)[C@@H](O)[C@H](C)O2)[C@H](C)[C@@H](O[C@@H]2O[C@H](C)C[C@H](N(C)C)[C@H]2O)[C@](C)(O)C[C@@H](C)C(=O)[C@H](C)[C@@H](O)[C@]1(C)O [Erythromycin, erythromycin]
- MIC of antibiotic on B. subtilis in the presence of Compound M-1 [6]: 1.5 µg/mL
- MIC of antibiotic on B. subtilis in the absence of Compound M-1 [7]: 50 µg/mL
- MIC [4, 11]: 50 µg/mL
- MIC [4, 12]: 0.4 µg/mL
- FIC ([4]; wild-type E. coli): 0.11

Structure (SMILES): CO[C@H]1/C=C/O[C@@]2(C)Oc3c(C)c(O)c4c(O)c(c(/C=N/N5CCN(C)CC5)c(O)c4c3C2=O)NC(=O)/C(C)=C\C=C\[C@H](C)[C@H](O)[C@@H](C)[C@@H](O)[C@@H](C)[C@H](OC(C)=O)[C@@H]1C [Rifampicin, rifampicin]
- MIC of antibiotic on B. subtilis in the presence of Compound M-1 [6]: 0.037 µg/mL
- Sensitization fold [3]: 516
- FIC [3]: 0.11
- MIC of AB with Compound C (5 μg/ml) [3]: 0.019 µg/mL
- MIC [4, 10]: 10 µg/mL
- MIC [4, 11]: 10 µg/mL
- MIC [4, 12]: 0.02 µg/mL
- Sensitization fold ([4]; MIC of antibiotic only / MIC of antibiotic with Compound C 5 μg/ml, wild-type E. coli): 516 and 512
- FIC ([4]; wild-type E. coli): 0.11 and 0.10

Structure (SMILES): Cc1cc(CSc2ccc(C(=N)N)cc2)cc(CSc2ccc(C(=N)N)cc2)c1 [drawing 744]
- SF (E. coli) at 12.5 μM [8]: 32 fold
- SF (B. subtilis) at 6 μM ([1]; erythromycin, NA=no activity): 32 fold

Structure (SMILES): CO[C@@H]1[C@@H](OC(N)=O)[C@@H](O)[C@H](Oc2ccc3c(O)c(NC(=O)c4ccc(O)c(CC=C(C)C)c4)c(=O)oc3c2C)OC1(C)C [Novobiocin, novobiocin]
- MIC [3, 9]: 50 µg/mL
- MIC ([3]; read-out: MIC of AB with Compound C (5 μg/ml), antibiotic plus Compound C 5 μg/ml): 1.6 µg/mL
- Sensitization fold [3]: 32
- FIC [3]: 0.13
- MIC [4, 11]: 100 µg/mL
- MIC of AB with Compound C (5 μg/ml) ([4]; wild-type E. coli): 1.5 µg/mL
- FIC ([4]; wild-type E. coli): 0.12

Structure (SMILES): Cc1cc(COc2ccc(C(=N)N)cc2)cc(COc2ccc(C(=N)N)cc2)c1 [drawing 834]
- SF (MRSA) at 6 μM [2]: 32-fold at 6 μM
- MIC [5]: 25 µM
